What was measured:
Assay type in all cases: in vivo
Monochoria vaginalis [1] = assay: Test Example 12: herbicidal effect test by treatment during growing period in paddy field; conditions: 120 g/10a; treatment seven days after sowing in flooded paddy pot; assessed 14 days after treatment
In short: (§1)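 Weed suppression (%) = (1 − treated/untreated mean dry weight) × 100, scored 14 days after treatment with two replicates per plot. Dose 120 g a.i. per 10 are, as diluted emulsifiable concentrate added dropwise to flooded pots (water about 3 cm) 7 days post-sowing, seeds at 0-1 cm.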

Scirpus juncoides [2] = assay: as above; conditions: 120 g/10a; treatment seven days after sowing in flooded paddy pot; assessed 14 days after treatment
In short: as §1

Echinochloa crus-galli [3] = assay: as above; conditions: 120 g/10a; treatment seven days after sowing in flooded paddy pot; assessed 14 days after treatment
In short: as §1

Lindernia pyxidaria [4] = assay: as above; conditions: 120 g/10a; treatment seven days after sowing in flooded paddy pot; assessed 14 days after treatment
In short: as §1

Monochoria vaginalis [5] = assay: Test Example 11: herbicidal effect test by soil treatment in paddy field; conditions: 120 g/10a active ingredient, 14 days after treatment
In short: (§2)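 Pre-emergence paddy test, 120 g a.i./10 are, emulsifiable concentrate diluted in water and added dropwise to ~3 cm flood water right after sowing (30 seeds/species, 0–1 cm depth, fertilized puddled soil). Greenhouse; 2 replicates; dry-weight suppression (%) vs untreated, day 14.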

Scirpus juncoides [6] = assay: as above; conditions: 120 g/10a active ingredient, 14 days after treatment
In short: as §2

Echinochloa crus-galli [7] = assay: as above; conditions: 120 g/10a active ingredient, 14 days after treatment
In short: as §2

Lindernia pyxidaria [8] = assay: as above; conditions: 120 g/10a active ingredient, 14 days after treatment
In short: as §2

Echinochloa crus-galli [9] = assay: Test Example 13: herbicidal effect test by soil treatment in upland field; conditions: 120 g/10a, 14 days after treatment
In short: (§3)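 Pre-emergence soil spray, 1 d post-sowing; emulsifiable concentrate in water, 100 L/10 are, 120 g a.i./10 are. Pots 36 cm^2, alluvial soil, 20 seeds/species in top 1 cm. n=2; read 14 d; suppression % = (1 − treated/untreated mean dry weight) × 100.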

Chenopodium album [10] = assay: as above; conditions: 120 g/10a, 14 days after treatment
In short: as §3

crabgrass [11] = assay: as above; conditions: 120 g/10a, 14 days after treatment
In short: as §3

Amaranthus viridis [12] = assay: as above; conditions: 120 g/10a, 14 days after treatment
In short: as §3

Echinochloa crus-galli [13] = assay: Test Example 14: herbicidal effect test by foliage treatment in upland field; conditions: 7 days after sowing, 120 g/10a, 14 days after treatment
In short: (§4)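 Emulsifiable concentrate, water-diluted, is applied post-emergence to 7-day-old sowings in field soil at 120 g active ingredient per 10 are. The weed suppression rate derives from average dry weights versus untreated controls, measured 14 days later.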

Amaranthus viridis [14] = assay: as above; conditions: 7 days after sowing, 120 g/10a, 14 days after treatment
In short: as §4

Chenopodium album [15] = assay: as above; conditions: 7 days after sowing, 120 g/10a, 14 days after treatment
In short: as §4

crabgrass [16] = assay: as above; conditions: 7 days after sowing, 120 g/10a, 14 days after treatment
In short: as §4

| Compound | Weed suppression rate (%) Monochoria vaginalis (Monochoria vaginalis [1]) [%] | Weed suppression rate (%) Scirpus juncoides (Scirpus juncoides [2]) [%] | Weed suppression rate (%) Echinochloa crus-galli (Echinochloa crus-galli [3]) [%] | Weed suppression rate (%) Lindemia pyxidaria (Lindernia pyxidaria [4]) [%] | Weed suppression rate (%) Monochoria vaginalis (Monochoria vaginalis [5]) [%] | Weed suppression rate (%) Scirpus juncoides (Scirpus juncoides [6]) [%] | Weed suppression rate (%) Echinochloa crus-galli (Echinochloa crus-galli [7]) [%] | Weed suppression rate (%) Lindemia pyxidaria (Lindernia pyxidaria [8]) [%] | herbicidal effect, Echinochloa crus-galli (Echinochloa crus-galli [9]) [%] | herbicidal effect, Chenopodium album (Chenopodium album [10]) [%] | herbicidal effect, Crabgrass (crabgrass [11]) [%] | herbicidal effect, Amaranthus viridis (Amaranthus viridis [12]) [%] | herbicidal effect, Echinochloa crus-galli (Echinochloa crus-galli [13]) [%] | herbicidal effect, Amaranthus viridis (Amaranthus viridis [14]) [%] | herbicidal effect, Chenopodium album (Chenopodium album [15]) [%] | herbicidal effect, Crabgrass (crabgrass [16]) [%] |
| --- | --- | --- | --- | --- | --- | --- | --- | --- | --- | --- | --- | --- | --- | --- | --- | --- |
| CC(C)N(C(=O)n1cnn(S(=O)(=O)c2ccc(F)cc2)c1=O)c1ccc(F)cc1F [Compound 11-475] | 90 | 90 | 90 | 90 | 90 | 90 | 100 | 90 | 100 | 90 | 100 | 80 | 70 | 40 | 40 | 90 |
| COc1ccc(S(=O)(=O)n2ncn(C(=O)N(c3cccc(F)c3F)C(C)C)c2=O)cc1 [Compound 11-1149] | 100 | 100 | 100 | 80 | 100 | 100 | 100 | 100 | 70 | 30 | 70 | 30 | 70 | 30 | 70 | 80 |
| CC(C)N(C(=O)n1cnn(S(=O)(=O)C2CC2)c1=O)c1ccc(Cl)nc1Cl [Compound 11-238] | 90 | 90 | 100 | 80 | 80 | 90 | 90 | 100 | 80 | 80 | 90 | 90 | 80 | 90 | 80 | 90 |
| CC(C)N(C(=O)n1cnn(S(=O)(=O)c2ccccc2Cl)c1=O)c1ccc(F)cc1F [Compound 11-512] | 100 | 90 | 100 | 100 | 100 | 100 | 100 | 100 | 100 | 50 | 100 | 70 | 80 | 40 | 50 | 90 |
| CC(C)N(C(=O)n1cnn(S(C)(=O)=O)c1=O)c1ccc(F)cc1Cl [Compound 11-19] | 80 | 90 | 90 | 80 | 80 | 90 | 90 | 80 | 80 | 80 | 90 | 90 | 80 | 90 | 80 | 90 |
| COc1ccc(S(=O)(=O)n2ncn(C(=O)N(c3c(F)cc(F)cc3F)C(C)C)c2=O)cc1 [Compound 11-1155] | 90 | 90 | 100 | 80 | 80 | 100 | 100 | 100 | 90 | 30 | 90 | 30 | 90 | 30 | 60 | 100 |
| CC(C)N(C(=O)n1cnn(S(C)(=O)=O)c1=O)c1ccc(F)cc1F [Compound 11-12] | 90 | 90 | 100 | 100 | 100 | 100 | 100 | 100 | 100 | 90 | 100 | 100 | 90 | 80 | 90 | 90 |
| CC(C)N(C(=O)n1cnn(S(=O)(=O)C(C)C)c1=O)c1cccc(F)c1F [Compound 11-58] | 100 | 100 | 100 | 100 | 100 | 100 | 100 | 100 | 100 | 70 | 90 | 70 | 90 | 30 | 70 | 100 |

— patent US11076595B2, “1-(n,n-disubstituted carbamoyl) 4-(substituted sulfonyl)triazolin-5-one derivative, 4-(n,n-disubstituted carbamoyl) 1-(substituted sulfonyl)triazolin-5-one derivative, and herbicide containing said derivative as active ingredient” (HOKKO CHEMICAL INDUSTRY CO., LTD., priority 2017, dated 2021)
